Consider five molecules from patent US20190282703A1, “ECTONUCLEOTIDE PYROPHOSPHATASE-PHOSPHODIESTERASE (ENPP) CONJUGATES AND USES THEREOF” (Mavupharma, Inc., priority 2018, published 2019).

Each structure is given as a SMILES string. A value given as a limit tells only on which side of the number the result lay.

Experiment [1] has as its target T1, human ENPP-1 enzyme (Homo sapiens, UniProt P22413).
T1 construct: purchased R&D Systems
T1 sequence (P22413 1-925): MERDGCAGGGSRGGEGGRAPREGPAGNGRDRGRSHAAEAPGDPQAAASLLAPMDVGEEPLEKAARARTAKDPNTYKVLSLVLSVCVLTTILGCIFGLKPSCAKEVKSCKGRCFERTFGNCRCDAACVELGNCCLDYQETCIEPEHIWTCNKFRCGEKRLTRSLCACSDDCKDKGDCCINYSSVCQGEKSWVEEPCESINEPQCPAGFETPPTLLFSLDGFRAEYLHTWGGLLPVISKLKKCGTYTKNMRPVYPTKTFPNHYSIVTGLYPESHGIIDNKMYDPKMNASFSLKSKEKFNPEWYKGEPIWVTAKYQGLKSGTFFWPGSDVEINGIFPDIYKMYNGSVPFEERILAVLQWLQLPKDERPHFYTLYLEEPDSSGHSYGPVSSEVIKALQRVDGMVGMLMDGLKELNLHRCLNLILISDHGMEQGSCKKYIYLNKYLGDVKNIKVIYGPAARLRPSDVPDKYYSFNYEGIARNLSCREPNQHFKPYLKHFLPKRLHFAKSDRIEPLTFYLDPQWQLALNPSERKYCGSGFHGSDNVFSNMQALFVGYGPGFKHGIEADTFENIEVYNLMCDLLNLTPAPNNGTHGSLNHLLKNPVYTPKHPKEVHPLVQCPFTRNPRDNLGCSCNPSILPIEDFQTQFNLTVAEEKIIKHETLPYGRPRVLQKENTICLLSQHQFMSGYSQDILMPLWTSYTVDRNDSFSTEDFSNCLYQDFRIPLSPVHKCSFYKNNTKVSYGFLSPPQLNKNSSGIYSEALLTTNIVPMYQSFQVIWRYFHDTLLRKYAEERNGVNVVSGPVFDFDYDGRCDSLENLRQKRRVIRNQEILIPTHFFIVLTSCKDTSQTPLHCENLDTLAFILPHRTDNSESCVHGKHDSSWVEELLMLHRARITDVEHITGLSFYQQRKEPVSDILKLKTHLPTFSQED
As to the kind of experiment: ENPP1 Enzyme Assay with cGAMP Substrate (AMP-Glo). The format is biochemical. The conditions noted are these: for inhibition at 10 µM: 10 uM compound; for inhibition at 10 µM / inhibition at 1 µM: 20 μM 2′3′-cGAMP substrate; for inhibition at 1 µM: 1 uM compound. The text has this:
ENPP1 Enzyme Assay with cGAMP Substrate:
Ectonucleotide pyrophosphatase/phosphodiesterase 1 (ENPP-1) is a transmembrane glycoprotein that hydrolyzes nucleotides and nucleotide derivatives with the formation of nucleoside-5′-monophosphates. ENPP-1 hydrolyzes 2′3′-cGAMP (cGAMP), breaking it down into 5′-AMP and 5′-GMP. The 5′-AMP formed from the reaction is detected using the AMP-Glo® Kit (Promega). The assay kit contains two reagents. The first reagent terminates the enzymatic reaction, removes ATP (using adenylyl cyclase), and converts 5′-AMP produced into ADP (using polyphosphate: AMP phosphotransferase). The second reagent converts ADP to ATP (using adenylate kinase) and generates light from ATP using the luciferin/luciferase reaction. The amount of light measured is proportional to the amount of 5′-AMP produced by ENPP1.
Different concentrations of exemplary ENPP1 inhibitors (synthetic molecules #1-7; see Table 1) were pre-incubated with 5 ng/well of human ENPP-1 enzyme (R&D Systems) for 15 minutes at 37° C. The reaction was initiated by adding 20 μM 2′3′-cGAMP and incubating for 30 minutes at 37° C. The final assay reaction mixture contained a buffer of 50 mM Tris pH 8.0, 250 mM NaCl, 0.5 mM CaCl2, 1 μM ZnCl2 and 1% DMSO. At the end of the incubation, the reaction was stopped by adding 12 μl of AMP-Glo reagent-1 and mixing the reaction uniformly for 5 minutes, followed by incubation at room temperature for one hour. Then 25 μl of AMP Glo reagent-2 was added to the reaction, mixed uniformly with a pipette, and incubated at room temperature for one hour to convert the ADP formed from reagent-1 to ATP and light. The generated light was measured in a Perkin Elmer Victor® instrument. Maximal activity control samples (containing enzyme, substrate, and buffer in the absence of ENPP1 inhibitors: MAX) and background control samples (containing enzyme, substrate, and buffer plus a fully inhibitory concentration (3 μM) of the reference ENPP1 Inhibitor, MV-0000002: MIN) were simultaneously evaluated in order to calculate the percent inhibition at each compound concentration as follows:
(§1) % inhibition=(([MAX−MIN]−[COMPOUND−MIN])/[MAX−MIN])*100
The IC50 values for percent inhibition versus compound concentration were determined by fitting the inhibition curves using a four-parameter variable slope model in GraphPad Prism® software. Ki values are derived from the IC50 values using the Cheng-Prusoff equation: […]

Experiment [2] has as its target T1, human ENPP-1 enzyme. Nature of the experiment: ENPP1 Enzyme Assay with TMP-pNP Substrate (absorbance at 405 nm). The format is biochemical. The note with it: for inhibition at 10 µM: read-out: TMP-pNP: % inhibition at 10 uM, 10 uM compound, 200 μM TMP-pNP substrate. The method, then:
ENPP1 Enzyme Assay with TMP-pNP Substrate:
ENPP-1 hydrolyzes thymidine 5′monophosphate p-nitrophenyl ester (TMP-pNP) to nucleotide-5′-monophosphate and p-nitrophenol, which is a chromogenic product. The amount of p-nitrophenol product formed is measured using its absorbance at 405 nm, which is directly proportional to enzyme activity. Different concentrations of inhibitors (synthetic molecules #1-7; see Table 1) were pre-incubated with 15 ng/well of human ENPP-1 enzyme (R&D Systems) for 15 minutes at 37° C. The reaction was initiated by adding 200 μM TMP-pNP and incubating for 10 minutes at 37° C. The final assay reaction mixture contained a buffer of 50 mM Tris pH 8.0, 250 mM NaCl, 0.5 mM CaCl2, 1 μM ZnCl2 and 1% DMSO. The amount of product formed was measured directly in a Tecan® spectrophotometer. Maximal activity control samples (containing enzyme, substrate, and buffer in the absence of ENPP1 inhibitors: MAX) and background control samples (containing enzyme, substrate, and buffer plus a fully inhibitory concentration (3 μM) of the reference ENPP1 Inhibitor, MV-0000002: MIN) are simultaneously evaluated in order to calculate the percent inhibition at each compound concentration as follows:
as §1
The IC50 values for percent inhibition versus compound concentration were determined by fitting the inhibition curves (percent inhibition versus inhibitor concentration) using a four-parameter variable slope model in GraphPad Prism® software. Ki values are derived from the IC50 values using the Cheng-Prusoff equation:
Ki=IC50/(1+[TMP-pNP]/Km),

For orientation: Ki means the dissociation constant of the complex between target and ligand, obtained from inhibition or displacement. A lower Ki goes with tighter binding. By inhibition is commonly meant the share of the control response that was lost under treatment. On to `Cn1ncc2c(N3CCC(CCNS(N)(=O)=O)CC3)ncnc21` [Ex 3, N-(2-(1-(1-methyl-1H-pyrazolo[3,4-d]pyrimidin-4-yl)piperidin-4-yl)ethyl)sulfonic amide], for which the Ki at human ENPP-1 enzyme [1] and on human ENPP-1 enzyme [2] was above 1000 nM in each case. Besides, the inhibition at 10 µM on human ENPP-1 enzyme [1] is at least 75%.
As to `COc1cc2ncnc(N3CCc4c(cccc4S(N)(=O)=O)C3)c2cc1OC` [Ex 6, 2-(6,7-dimethoxyquinazolin-4-yl)-1,2,3,4-tetrahydroisoquinoline-5-sulfonamide], the inhibition constant (Ki) at human ENPP-1 enzyme [1] was 100 to 1000 nM; at human ENPP-1 enzyme [2], above 1000 nM. Moreover, on human ENPP-1 enzyme [1], the inhibition at 1 µM was at least 75%.
Consider `COc1cc2ncc(C(N)=O)c(N3CCC(CCNS(N)(=O)=O)CC3)c2cc1OC` [Ex 2, 6,7-dimethoxy-4-(4-(2-(sulfamoylamino)ethyl)piperidin-1-yl)quinoline-3-carboxamide], for which, at human ENPP-1 enzyme [1], the inhibition at 1 µM was at least 75%. Moreover, the inhibition at 10 µM on human ENPP-1 enzyme [2] is at least 75%.
Take `COc1cc2ncnc(NCCc3cccc(NS(N)(=O)=O)c3)c2cc1OC` [Ex 7, N-(3-(2-((6,7-dimethoxyquinazolin-4-yl)amino)ethyl)phenyl)sulfonic amide]: at human ENPP-1 enzyme [1], the inhibition constant Ki was 100 to 1000 nM and the inhibition at 10 µM is at least 75%. The inhibition constant Ki on human ENPP-1 enzyme [2] was above 1000 nM.
In the case of `COc1cc2ncnc(N3CCC4(CC3)CN(S(N)(=O)=O)C4)c2cc1OC` [Ex 5, 7-(6,7-dimethoxyquinazolin-4-yl)-2,7-diazaspiro[3.5]nonane-2-sulfonamide], at human ENPP-1 enzyme [1], the Ki was at most 100 nM and the inhibition at 10 µM was at least 75%. Also, on human ENPP-1 enzyme [2], the inhibition constant Ki fell in the range of 100 to 1000 nM and the inhibition at 10 µM was at least 75%.
